Measurements published in PubChem BioAssay (NCI).
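Test compounds were applied to cells in 96-well plates for 48 hours at 5 doses. TGI denotes the concentration required for complete inhibition of growth.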

Experiments:
Assay in all cases: NCI-60 cell line screen, 48 h
U251 CNS = system: U251 CNS
SNB-75 CNS = system: SNB-75 CNS
RXF 393 renal = system: RXF 393 renal
HL-60(TB) leukemia = system: HL-60(TB) leukemia
NCI-H522 lung = system: NCI-H522 lung
CCRF-CEM leukemia = system: CCRF-CEM leukemia
OVCAR-8 ovarian = system: OVCAR-8 ovarian
UO-31 renal = system: UO-31 renal
SF-268 CNS = system: SF-268 CNS
HCC-2998 colon = system: HCC-2998 colon
OVCAR-4 ovarian = system: OVCAR-4 ovarian
KM12 colon = system: KM12 colon
SK-MEL-5 melanoma = system: SK-MEL-5 melanoma
HCT-15 colon = system: HCT-15 colon
OVCAR-5 ovarian = system: OVCAR-5 ovarian
PC-3 prostate = system: PC-3 prostate
T-47D breast = system: T-47D breast
MDA-MB-231 breast = system: MDA-MB-231 breast
NCI/ADR-RES ovarian = system: NCI/ADR-RES ovarian
MDA-MB-435 = system: MDA-MB-435

Structure (SMILES) | TGI (U251 CNS) [µM] | TGI (SNB-75 CNS) [µM] | TGI (RXF 393 renal) [µM] | TGI (HL-60(TB) leukemia) [µM] | TGI (NCI-H522 lung) [µM] | TGI (CCRF-CEM leukemia) [µM] | TGI (OVCAR-8 ovarian) [µM] | TGI (UO-31 renal) [µM] | TGI (SF-268 CNS) [µM] | TGI (HCC-2998 colon) [µM] | TGI (OVCAR-4 ovarian) [µM] | TGI (KM12 colon) [µM] | TGI (SK-MEL-5 melanoma) [µM] | TGI (HCT-15 colon) [µM] | TGI (OVCAR-5 ovarian) [µM] | TGI (PC-3 prostate) [µM] | TGI (T-47D breast) [µM] | TGI (MDA-MB-231 breast) [µM] | TGI (NCI/ADR-RES ovarian) [µM] | TGI (MDA-MB-435) [µM]
CC(OC1CC(=O)CC2C(=O)C=CC(=O)C12)c1ccccc1 (configuration not stated) | 27.9 | > 57.7 | 35.8 | 20 | 2.98 | 9.54 | 33.2 | 29.5 | 40.9 | 29.7 | 32.4 | 32.4 | 33.6 | 31.4 | 31.6 |  |  |  |  | 
Cc1ccc(S(=O)(=O)NC(=O)NC(C(=O)O)C(C)O)cc1 (configuration not stated) | > 100 | > 100 | > 100 | > 100 | > 100 | > 100 | > 100 | > 100 | > 100 |  | > 100 | > 100 | > 100 | > 100 | > 100 | > 100 | > 100 | > 100 | > 100 | 
CSC1=C(C#N)C(=O)N(c2ccc(Cl)cc2)C(=O)C1C#N (configuration not stated) | > 100 |  | > 100 | > 100 | > 100 | > 100 |  | > 100 | > 100 | > 100 | > 100 |  | > 100 | > 100 | > 100 | > 100 | > 100 | > 100 |  | > 100
CC(NC1=NCCO1)c1cccs1 (configuration not stated) | 39.6 | > 100 |  | 45.4 |  | 78.5 | > 100 | 92.8 | 69.9 | 31.5 | > 100 | 31.7 | 75.1 | > 100 | > 100 |  | > 100 | > 100 | > 100 | 44.4
O=[N+]([O-])c1cc2c(cc1O)[nH]c1cccc([N+](=O)[O-])c12 |  | > 100 |  | > 100 | > 100 | > 100 | > 100 | > 100 | > 100 | > 100 | > 100 | > 100 | > 100 | > 100 | > 100 |  |  |  |  | 
COc1cc(C(C#N)NNC(=O)Cc2ccccc2)cc(OC)c1OC (configuration not stated) | > 100 | > 100 | > 100 | > 100 | > 100 |  | > 100 | > 100 | > 100 |  | > 100 | > 100 | > 100 | > 100 | > 100 |  |  |  |  | 
Cc1cc(Cl)ccc1NC(=O)C(=O)Cc1ccc([N+](=O)[O-])c([N+](=O)[O-])c1CC(=O)C(=O)Nc1ccc(Cl)cc1C | > 100 | > 100 | > 100 | > 100 | > 100 | > 100 | > 100 | > 100 | > 100 | > 100 | > 100 | > 100 | > 100 | > 100 | > 100 |  |  |  |  | 
CCOC(=O)CCC(NC(=O)c1ccc(Nc2cnc3cc(C(F)(F)F)ccc3n2)cc1)C(=O)OCC (configuration not stated) | 15.3 | 5.91 | 9.64 | > 100 | > 100 | > 100 | > 100 | > 100 | > 78.4 | > 100 | > 100 | > 100 | > 100 | > 100 | > 100 |  | > 100 | > 100 | > 100 | > 100
C[n+]1c2ccccc2c(C(=O)NC(CCCN=C(N)N)C(=O)O)c2ccccc21 (configuration not stated) | > 100 | > 100 |  |  |  |  | > 100 | > 100 | > 100 | > 100 | > 100 | > 100 | > 100 | > 100 | > 100 | > 100 | > 100 | > 100 | > 100 | > 100
CC(C)c1cccc(C(C)C)c1NC(=O)C(=O)CC(=O)CC(c1ccccc1)c1c(O)c2ccccc2oc1=O (configuration not stated) |  |  | > 100 | > 100 | > 100 | > 100 | > 100 | > 100 | > 100 | > 100 | > 100 | > 100 | > 100 |  | > 100 |  |  |  |  | 
Nc1ccc(C(=O)NN2C(=O)C(Cl)C2c2cc(Br)cc(Br)c2O)cc1 (configuration not stated) | > 100 | > 100 | 79.8 | > 100 | > 100 | > 100 | > 100 | 22.4 | 41.6 | > 100 | > 100 | > 100 | 65.5 | > 100 | > 100 |  |  |  |  | 
O=C1N(CN2CCOCC2)CN(CN2CCOCC2)C(=O)N1Cc1ccc(-c2ccc(CN3C(=O)N(CN4CCOCC4)CN(CN4CCOCC4)C3=O)cc2)cc1 | > 70.8 | 49.6 | 27.3 |  | 35.4 |  | 82.9 | 40.6 | 59.3 | 28.3 | 39.3 | 77.3 | > 38.9 | > 91.2 | 39.8 | > 79.5 | > 100 | > 73.9 | 80.8 | 13.6
Fc1ccc2c(c1)SC1Oc3ccccc3-c3c1c-2nn3-c1ccccc1 (configuration not stated) | > 100 | > 100 | > 100 | > 100 | > 100 | > 100 | > 100 | > 100 | > 100 | > 100 |  | > 100 |  |  | > 100 |  |  |  |  | 
COc1cc2c(cc1O)[C@H](C)C(c1ccccc1OC)O2 (some centres not stated) | 8.01 | 6.48 | 93.6 | 7.5 | 9.25 | 30.6 | 57.8 | 70.2 | > 100 | 90 | 60.2 | > 100 | 19.7 | 12.1 | > 100 |  |  |  |  | 
Cc1ccc(/C=C/C(=O)C(C)C)cc1 | > 100 | > 100 | > 100 |  | > 100 | 67.3 | > 100 | > 100 | > 100 | > 100 | > 100 | > 100 | > 100 |  | 53.7 |  |  |  |  | 
